SMILES strings stand for the structures.

Broadly, the inhibition is the relative decrease from the control value, in per cent. Low readings indicate a weak effect, high ones a strong effect.

In the experiment the target is T1, IKKβ (Homo sapiens, UniProt O14920).
T1 construct: purchased Upstate Biotechnology Inc. 14-485
T1 sequence (O14920 1-756): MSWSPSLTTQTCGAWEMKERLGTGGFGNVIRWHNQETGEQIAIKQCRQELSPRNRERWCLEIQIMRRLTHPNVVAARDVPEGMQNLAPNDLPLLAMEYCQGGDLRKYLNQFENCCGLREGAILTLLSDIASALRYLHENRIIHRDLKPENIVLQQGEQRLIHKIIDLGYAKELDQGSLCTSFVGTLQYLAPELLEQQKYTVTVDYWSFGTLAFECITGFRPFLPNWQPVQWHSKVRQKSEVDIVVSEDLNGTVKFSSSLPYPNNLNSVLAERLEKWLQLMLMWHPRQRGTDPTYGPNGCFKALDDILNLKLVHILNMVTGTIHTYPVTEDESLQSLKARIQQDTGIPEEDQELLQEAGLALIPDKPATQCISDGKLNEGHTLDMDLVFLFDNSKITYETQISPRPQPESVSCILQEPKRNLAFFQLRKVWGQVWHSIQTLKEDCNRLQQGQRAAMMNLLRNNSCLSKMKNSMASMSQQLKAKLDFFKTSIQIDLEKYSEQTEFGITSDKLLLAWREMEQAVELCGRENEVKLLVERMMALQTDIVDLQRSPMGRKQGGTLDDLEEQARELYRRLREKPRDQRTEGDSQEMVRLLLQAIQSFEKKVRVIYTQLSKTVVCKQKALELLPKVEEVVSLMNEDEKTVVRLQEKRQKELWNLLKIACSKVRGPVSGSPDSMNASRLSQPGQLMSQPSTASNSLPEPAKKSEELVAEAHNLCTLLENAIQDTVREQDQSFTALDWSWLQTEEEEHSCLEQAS
The experiment in a line: IKKβ inhibition assay by fluorescence polarization (IMAP kit). The format is biochemical. The following applies: test compound at 1 μM; inhibition rate exceeding 100% is indicated as 100%. The method, then:
In order to evaluate IKKβ inhibitory activity of the present compounds, an IKKβ inhibition assay by the fluorescence polarization method was conducted.
The assay was conducted using IMAP™ IKKβ assay kit (manufactured by Molecular Devices Corporation, catalogue No. R8115) or IMAP™ FP Screening Express kit (manufactured by Molecular Devices Corporation, catalogue No. R8127) and in accordance with the protocol attached to each kit. The specific methods are described below. (Preparation of Reagents)
1) Complete Reaction Buffer: a complete reaction buffer was so prepared as to obtain a final concentration of 10 mM Tris-HCL (pH 7.2), 10 mM magnesium chloride, 0.1% bovine serum albumin, and 1 mM dithiothreitol.
2) Substrate Working Solution: 400 nM of a substrate working solution was prepared by dissolving and diluting a fluorescein-labeled IKKβ substrate peptide (amino acid sequence: GRHDSGLDSMK) with the complete reaction buffer.
3) Enzyme Working Solution: 0.2 units/mL of an enzyme working solution was prepared by diluting IKKβ solution (manufactured by Upstate Biotechnology Inc., catalogue No. 14-485) with the complete reaction buffer.
4) ATP Working Solution: 8 μM of an ATP working solution was prepared by dissolving ATP into ultrapure water followed by diluting it with the complete reaction buffer.
5) IMAP binding solution: After diluting an IMAP binding buffer with ultrapure water, an IMAP binding solution was prepared by diluting an IMAP binding reagent with the diluted IMAP binding buffer.
A test compound was dissolved in dimethylsulfoxide followed by diluting it with the complete reaction buffer to prepare 4 μM of a test compound solution.
1) To a 384-well plate, the test compound solution, the enzyme working solution, the substrate working solution, and the ATP working solution were added in an amount of 5 μL per well.
2) Incubation was performed at a room temperature for 60 minutes under light shielding.
3) The IMAP binding solution was added in an amount of 60 μL per well.
4) Incubation was performed at a room temperature for 30 minutes under light shielding.
5) Fluorescence polarization value of each well was measured by using Analyst™ HT (multimode plate reader manufactured by Molecular Devices Corporation) and Criterion Host Software v2.00 (manufactured by Molecular Devices Corporation).
6) Operations were performed in the same manner as in 1) to 5) except for changing the test compound to 0.4% dimethylsulfoxide. The obtained result was designated as a control.
7) Operations were performed in the same manner as in 1) to 5) except for changing the test compound and the enzyme working solution to 0.4% dimethylsulfoxide and the complete reaction buffer, respectively. The obtained result was designated as a background.
An IKKβ inhibition rate (%) was calculated by the following equation.
IKKβ inhibition rate (%)=100×{1−(fluorescence polarization value of test compound−fluorescence polarization value of background)/(fluorescence polarization value of control−fluorescence polarization value of background)}
(Polarisation of emitted light reports the rotation of a fluorescent probe.)

On to `CC(C)(N)c1ccc(-c2ccc3c(C(N)=O)c(NC(N)=O)[nH]c3c2)cc1` [Compound 8-6], for which at 1 µM the inhibition was 99%.
`NC(=O)Nc1[nH]c2cc(CN3CCCC3)ccc2c1C(N)=O` [Compound 24-2] gave an inhibition at 1 µM of 100%.
The result for `CC(=O)Nc1ccc2c(C(N)=O)c(NC(N)=O)[nH]c2c1` [Compound 2-1, 6-Acetylamino-2-aminocarbonylaminoindole-3-carboxamide] reads 80%.
Molecule `NC(=O)Nc1[nH]c2cc(-c3cccc([N+](=O)[O-])c3)ccc2c1C(N)=O` [Compound 4-16, 2-Aminocarbonylamino-6-(3-nitrophenyl)indole-3-carboxamide] had an inhibition at 1 µM of 100%.
For the molecule `NC(=O)Nc1[nH]c2cc(C#CCO)ccc2c1C(N)=O` [Compound 9-2, 2-Aminocarbonylamino-6-(3-hydroxy-1-propynyl) indole-3-carboxamide], the inhibition at 1 µM came to 95%.
The result for `NC(=O)Nc1[nH]c2cc(-c3ccccc3)ccc2c1C(N)=O` [Compound 4-2, 2-Aminocarbonylamino-6-phenylindole-3-carboxamide] reads 100%; that for `COc1cccc(-c2ccc3c(C(N)=O)c(NC(N)=O)[nH]c3c2)c1` [Compound 4-4, 2-Aminocarbonylamino-6-(3-methoxyphenyl)indole-3-carboxamide], 98%.
The result for `NC(=O)Nc1[nH]c2cc(-c3ccsc3Cl)ccc2c1C(N)=O` [Compound 4-23, 2-Aminocarbonylamino-6-(2-chlorothiophen-3-yl)indole-3-carboxamide] reads 100%.
The result for `NC(=O)Nc1[nH]c2cc(-c3ccc(CNC4CC4)o3)ccc2c1C(N)=O` [Compound 13-15, 2-Aminocarbonylamino-6-(5-cyclopropylaminomethylfuran-2-yl)indole-3-carboxamide] reads 100%; that for `NC(=O)Nc1[nH]c2cc(N3CCCC3)ccc2c1C(N)=O` [Compound 2-5, 2-Aminocarbonylamino-6-(pyrrolidin-1-yl)indole-3-carboxamide], 86%; that for `NC(=O)Nc1[nH]c2cc(-c3cccc(CO)c3)ccc2c1C(N)=O` [Compound 12-1, 2-aminocarbonylamino-6-(3-hydroxymethylphenyl)indole-3-carboxamide], 100%.
Molecule `NC(=O)Nc1[nH]c2cc(NC(=O)c3ccccc3)ccc2c1C(N)=O` [Compound 2-2, 2-Aminocarbonylamino-6-benzoylaminoindole-3-carboxamide] came in with an inhibition at 1 µM of 49%.
The result for `CN(C)c1ccc2c(C(N)=O)c(NC(N)=O)[nH]c2c1` [Compound 2-4, 2-Aminocarbonylamino-6-dimethylaminoindole-3-carboxamide] reads 95%; that for `C[C@H](O)c1cccc(-c2ccc3c(C(N)=O)c(NC(N)=O)[nH]c3c2)c1` [Compound 7-45], 98%; that for `C=Cc1ccc2c(C(N)=O)c(NC(N)=O)[nH]c2c1` [Compound 4-38, 2-Aminocarbonylamino-6-vinylindole-3-carboxamide], 100%.
As for `NC(=O)Nc1[nH]c2cc(C3CCCCC3)ccc2c1C(N)=O` [Compound 11-4, 2-Aminocarbonylamino-6-cyclohexylindole-3-carboxamide], testing at 1 µM gave an inhibition of 100%.
Molecule `NC(=O)Nc1[nH]c2cc(-c3ccc(CO)o3)ccc2c1C(N)=O` [Compound 12-2, 2-Aminocarbonylamino-6-(5-hydroxymethylfuran-2-yl) indole-3-carboxamide] registered an inhibition at 1 µM of 99%.
The result for `N#Cc1cccc(-c2ccc3c(C(N)=O)c(NC(N)=O)[nH]c3c2)c1` [Compound 4-15, 2-Aminocarbonylamino-6-(3-cyanophenyl)indole-3-carboxamide] reads 100%; that for `NC(=O)Nc1[nH]c2cc(-c3ccc[nH]3)ccc2c1C(N)=O` [Compound 5-1, 2-Aminocarbonylamino-6-(pyrrol-2-yl)indole-3-carboxamide], 95%.
The result for `NC(=O)Nc1[nH]c2cc(-c3cccnc3)ccc2c1C(N)=O` [Compound 4-9, 2-Aminocarbonylamino-6-(pyridin-3-yl)indole-3-carboxamide] reads 100%.
The result for `CC(N)c1ccc(-c2ccc3c(C(N)=O)c(NC(N)=O)[nH]c3c2)cc1` (centres unmarked) [Compound 8-5] reads 100%.
Regarding `NC(=O)Nc1c(C(N)=O)c2ccc(Br)cc2n1O` [Compound 1-1, 2-Aminocarbonylamino-6-bromo-1-hydroxyindole-3-carboxamide], at 1 µM the inhibition was 86%.
The result for `NC(=O)Nc1[nH]c2cc(-n3cccc3)ccc2c1C(N)=O` [Compound 2-9, 2-Aminocarbonylamino-6-(pyrrol-1-yl)indole-3-carboxamide] reads 100%.
The result for `CC(C)NCc1cccc(-c2ccc3c(C(N)=O)c(NC(N)=O)[nH]c3c2)c1` [Compound 13-5, 2-Aminocarbonylamino-6-(3-isopropylaminomethylphenyl) indole-3-carboxamide] reads 100%; that for `NC(=O)Nc1[nH]c2cc(-c3cccc(CCO)c3)ccc2c1C(N)=O` [Compound 7-5], 97%; that for `NC(=O)Nc1[nH]c2cc(CO)ccc2c1C(N)=O` [Compound 16-1, 2-Aminocarbonylamino-6-hydroxymethylindole-3-carboxamide], 78%.
The result for `CN(C)c1ccc(-c2ccc3c(C(N)=O)c(NC(N)=O)[nH]c3c2)cc1` [Compound 4-78, 2-Aminocarbonylamino-6-(4-dimethylaminophenyl)indole-3-carboxamide] reads 95%.
In the case of `NC(=O)Nc1[nH]c2cc(NC(=O)Nc3ccccc3)ccc2c1C(N)=O` [Compound 2-3, 2-Aminocarbonylamino-6-(3-phenylureido)indole-3-carboxamide], the inhibition at 1 µM amounted to 56%.
The result for `Cc1c(-c2ccoc2)ccc2c(C(N)=O)c(NC(N)=O)[nH]c12` [Compound 4-81, 2-Aminocarbonylamino-6-(furan-3-yl)-7-methylindole-3-carboxamide] reads 96%; that for `NC(=O)Nc1[nH]c2cc(C(=O)NCc3ccccc3)ccc2c1C(N)=O` [Compound 22-9], 100%.
The result for `NC(=O)Nc1[nH]c2cc(-c3ccccc3F)ccc2c1C(N)=O` [Compound 4-10, 2-Aminocarbonylamino-6-(2-fluorophenyl)indole-3-carboxamide] reads 100%.
The result for `NC(=O)Nc1[nH]c2cc(-c3ccnc(Cl)c3)ccc2c1C(N)=O` [Compound 7-26] reads 98%; that for `NC(=O)Nc1[nH]c2cc(CCCCO)ccc2c1C(N)=O` [Compound 11-6, 2-Aminocarbonylamino-6-(4-hydroxybutyl)indole-3-carboxamide], 98%.
Turning to `NC(=O)Nc1[nH]c2cc(C(=O)N3CCCC3)ccc2c1C(N)=O` [Compound 22-2], the inhibition at 1 µM worked out at 70%.
On to `C[C@@H](O)c1cccc(-c2ccc3c(C(N)=O)c(NC(N)=O)[nH]c3c2)c1` [Compound 7-44], for which testing at 1 µM gave an inhibition of 100%.

The values above are taken from patent US8193237B2, “Indole derivative having IκB kinase β inhibitory activity” (Santen Pharmaceutical Co., Ltd., priority 2007, dated 2012).
